Measured values published in PubChem BioAssay (NCI).
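Briefly, cells in 96-well plates were exposed to five compound concentrations for 48 h, and endpoints were estimated by linear interpolation. TGI denotes the concentration required for complete inhibition of growth.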

Key:
Experiment in all cases: DTP human tumour cell line panel, 48 h
786-0 renal = test system: 786-0 renal
A549 NSCLC = test system: A549 NSCLC
ACHN renal = test system: ACHN renal
CCRF-CEM leukemia = test system: CCRF-CEM leukemia
HCT-116 colon = test system: HCT-116 colon
HT29 colon = test system: HT29 colon
IGROV1 ovarian = test system: IGROV1 ovarian
K-562 leukemia = test system: K-562 leukemia
KM12 colon = test system: KM12 colon
LOX IMVI melanoma = test system: LOX IMVI melanoma
M14 melanoma = test system: M14 melanoma
MOLT-4 leukemia = test system: MOLT-4 leukemia
NCI/ADR-RES ovarian = test system: NCI/ADR-RES ovarian
OVCAR-3 ovarian = test system: OVCAR-3 ovarian
OVCAR-8 ovarian = test system: OVCAR-8 ovarian
PC-3 prostate = test system: PC-3 prostate
SK-MEL-28 melanoma = test system: SK-MEL-28 melanoma
SR leukemia = test system: SR leukemia
SW-620 colon = test system: SW-620 colon
U251 CNS = test system: U251 CNS

Question: Which TGI (786-0 renal) does the source give for `CC(O)C1(CNc2cc(Cl)nc(N)n2)CC(CCc2ccccc2)C1` (stereo not given) here?
Answer: 39 µM

Question: And the TGI (A549 NSCLC)?
Answer: 31 µM

Question: What about the TGI (ACHN renal) of the same compound?
Answer: 22.2 µM

Question: What about the TGI (CCRF-CEM leukemia) of the same compound?
Answer: 94.5 µM

Question: What about the TGI (HCT-116 colon) of the same compound?
Answer: 21.1 µM

Question: And the TGI (HT29 colon)?
Answer: 25.7 µM

Question: And the TGI (IGROV1 ovarian)?
Answer: 28.4 µM

Question: What about the TGI (K-562 leukemia) of the same compound?
Answer: 86.4 µM

Question: What about the TGI (KM12 colon) of the same compound?
Answer: 27.7 µM

Question: And the TGI (LOX IMVI melanoma)?
Answer: 16.9 µM

Question: And the TGI (M14 melanoma)?
Answer: 33.4 µM

Question: What about the TGI (MOLT-4 leukemia) of the same compound?
Answer: 56 µM

Question: What about the TGI (NCI/ADR-RES ovarian) of the same compound?
Answer: 21.8 µM

Question: What about the TGI (OVCAR-3 ovarian) of the same compound?
Answer: 33.7 µM

Question: And the TGI (OVCAR-8 ovarian)?
Answer: 32 µM

Question: What about the TGI (PC-3 prostate) of the same compound?
Answer: 25.3 µM

Question: What about the TGI (SK-MEL-28 melanoma) of the same compound?
Answer: 27.8 µM

Question: What about the TGI (SR leukemia) of the same compound?
Answer: 35.8 µM

Question: And the TGI (SW-620 colon)?
Answer: 29.3 µM

Question: What about the TGI (U251 CNS) of the same compound?
Answer: 27.6 µM

Question: Which TGI (786-0 renal) does the source give for `CCC1C(=O)C(O)[C@H]2[C@@H]3C(O)CC4=CC(=O)CC[C@]4(C)[C@H]3CC[C@]12C` (stereo not given in full) here?
Answer: > 50 µM

Question: What about the TGI (A549 NSCLC) of the same compound?
Answer: > 50 µM

Question: And the TGI (ACHN renal)?
Answer: > 50 µM

Question: And the TGI (CCRF-CEM leukemia)?
Answer: > 50 µM

Question: And the TGI (HCT-116 colon)?
Answer: > 50 µM

Question: What about the TGI (HT29 colon) of the same compound?
Answer: > 50 µM

Question: What about the TGI (IGROV1 ovarian) of the same compound?
Answer: > 50 µM

Question: What about the TGI (K-562 leukemia) of the same compound?
Answer: > 50 µM

Question: What about the TGI (KM12 colon) of the same compound?
Answer: > 50 µM

Question: And the TGI (LOX IMVI melanoma)?
Answer: > 50 µM

Question: And the TGI (M14 melanoma)?
Answer: > 50 µM

Question: And the TGI (MOLT-4 leukemia)?
Answer: > 50 µM

Question: What about the TGI (NCI/ADR-RES ovarian) of the same compound?
Answer: > 50 µM

Question: And the TGI (OVCAR-3 ovarian)?
Answer: > 50 µM

Question: What about the TGI (OVCAR-8 ovarian) of the same compound?
Answer: > 50 µM

Question: And the TGI (PC-3 prostate)?
Answer: > 50 µM

Question: What about the TGI (SK-MEL-28 melanoma) of the same compound?
Answer: > 50 µM

Question: And the TGI (SR leukemia)?
Answer: > 50 µM

Question: What about the TGI (SW-620 colon) of the same compound?
Answer: > 50 µM

Question: And the TGI (U251 CNS)?
Answer: > 50 µM

Question: Which results are given for `CN(C)/C=N/NC(=O)/C(C#N)=C/N(C)C`?
Answer: TGI (786-0 renal): > 100 µM; TGI (A549 NSCLC): > 100 µM; TGI (ACHN renal): > 100 µM; TGI (CCRF-CEM leukemia): > 100 µM; TGI (HCT-116 colon): > 100 µM; TGI (HT29 colon): > 100 µM; TGI (IGROV1 ovarian): > 100 µM; TGI (K-562 leukemia): > 100 µM; TGI (KM12 colon): > 100 µM; TGI (LOX IMVI melanoma): > 100 µM; TGI (M14 melanoma): > 100 µM; TGI (MOLT-4 leukemia): > 100 µM; TGI (NCI/ADR-RES ovarian): > 100 µM; TGI (OVCAR-3 ovarian): > 100 µM; TGI (OVCAR-8 ovarian): > 100 µM; TGI (PC-3 prostate): > 100 µM; TGI (SK-MEL-28 melanoma): > 100 µM; TGI (SR leukemia): > 100 µM; TGI (SW-620 colon): > 100 µM; TGI (U251 CNS): > 100 µM

Question: Which results are given for `O=C1C(=Cc2cccc(O)c2)N=C(c2ccccc2)N1n1c(-c2ccccc2)nc2ccccc2c1=O`?
Answer: TGI (786-0 renal): > 100 µM; TGI (A549 NSCLC): > 100 µM; TGI (ACHN renal): 58 µM; TGI (CCRF-CEM leukemia): 75.5 µM; TGI (HCT-116 colon): 43.2 µM; TGI (HT29 colon): 85 µM; TGI (IGROV1 ovarian): 61.1 µM; TGI (K-562 leukemia): > 100 µM; TGI (KM12 colon): 56.4 µM; TGI (LOX IMVI melanoma): 52.5 µM; TGI (M14 melanoma): > 100 µM; TGI (MOLT-4 leukemia): 44.2 µM; TGI (NCI/ADR-RES ovarian): > 100 µM; TGI (OVCAR-3 ovarian): 70.1 µM; TGI (OVCAR-8 ovarian): 98.5 µM; TGI (PC-3 prostate): 58.7 µM; TGI (SK-MEL-28 melanoma): > 100 µM; TGI (SR leukemia): 60.5 µM; TGI (SW-620 colon): > 100 µM; TGI (U251 CNS): > 100 µM

Question: For `Cc1cc(-c2nc3ccc(F)cc3s2)ccc1N`, which TGI (786-0 renal) is on record?
Answer: > 100 µM

Question: What about the TGI (A549 NSCLC) of the same compound?
Answer: > 100 µM

Question: And the TGI (ACHN renal)?
Answer: > 100 µM

Question: And the TGI (CCRF-CEM leukemia)?
Answer: > 100 µM

Question: And the TGI (HCT-116 colon)?
Answer: > 100 µM

Question: And the TGI (HT29 colon)?
Answer: > 100 µM

Question: What about the TGI (IGROV1 ovarian) of the same compound?
Answer: > 100 µM

Question: And the TGI (K-562 leukemia)?
Answer: > 100 µM

Question: And the TGI (KM12 colon)?
Answer: > 100 µM

Question: And the TGI (LOX IMVI melanoma)?
Answer: > 100 µM

Question: And the TGI (M14 melanoma)?
Answer: > 100 µM

Question: And the TGI (MOLT-4 leukemia)?
Answer: > 100 µM

Question: What about the TGI (NCI/ADR-RES ovarian) of the same compound?
Answer: > 100 µM

Question: And the TGI (OVCAR-3 ovarian)?
Answer: > 100 µM

Question: And the TGI (OVCAR-8 ovarian)?
Answer: > 100 µM

Question: What about the TGI (PC-3 prostate) of the same compound?
Answer: > 100 µM

Question: And the TGI (SK-MEL-28 melanoma)?
Answer: > 100 µM

Question: What about the TGI (SR leukemia) of the same compound?
Answer: > 100 µM

Question: What about the TGI (SW-620 colon) of the same compound?
Answer: > 100 µM

Question: What about the TGI (U251 CNS) of the same compound?
Answer: > 100 µM

Question: How did the TGI (786-0 renal) turn out when `CN(C)CCCCN1c2ccccc2Sc2ccc(C(=O)c3ccccc3)cc21` was run?
Answer: 4.83 µM

Question: And the TGI (A549 NSCLC)?
Answer: 7.22 µM

Question: And the TGI (ACHN renal)?
Answer: 7.19 µM

Question: And the TGI (CCRF-CEM leukemia)?
Answer: 6.61 µM

Question: And the TGI (HCT-116 colon)?
Answer: 4.9 µM

Question: And the TGI (HT29 colon)?
Answer: 3.88 µM

Question: And the TGI (IGROV1 ovarian)?
Answer: 7.89 µM

Question: And the TGI (K-562 leukemia)?
Answer: 3.36 µM

Question: What about the TGI (KM12 colon) of the same compound?
Answer: 4.99 µM

Question: What about the TGI (LOX IMVI melanoma) of the same compound?
Answer: 3.44 µM

Question: And the TGI (M14 melanoma)?
Answer: 3.25 µM

Question: What about the TGI (MOLT-4 leukemia) of the same compound?
Answer: 6.31 µM

Question: What about the TGI (NCI/ADR-RES ovarian) of the same compound?
Answer: 11.1 µM

Question: And the TGI (OVCAR-3 ovarian)?
Answer: 9.88 µM

Question: And the TGI (OVCAR-8 ovarian)?
Answer: 7.91 µM

Question: And the TGI (PC-3 prostate)?
Answer: 6.4 µM

Question: What about the TGI (SK-MEL-28 melanoma) of the same compound?
Answer: 3.72 µM

Question: And the TGI (SR leukemia)?
Answer: > 100 µM

Question: And the TGI (SW-620 colon)?
Answer: 2.91 µM

Question: What about the TGI (U251 CNS) of the same compound?
Answer: 7.52 µM

Question: With `Cc1ccc(NC2=N/C(=C/c3ccccc3)C(Cl)=N2)cc1` as the compound, how does the TGI (786-0 renal) read?
Answer: > 100 µM

Question: And the TGI (A549 NSCLC)?
Answer: > 100 µM

Question: And the TGI (ACHN renal)?
Answer: > 100 µM

Question: And the TGI (CCRF-CEM leukemia)?
Answer: > 100 µM

Question: What about the TGI (HCT-116 colon) of the same compound?
Answer: > 100 µM

Question: And the TGI (HT29 colon)?
Answer: > 100 µM

Question: And the TGI (IGROV1 ovarian)?
Answer: > 100 µM

Question: And the TGI (K-562 leukemia)?
Answer: > 100 µM

Question: And the TGI (KM12 colon)?
Answer: > 100 µM

Question: And the TGI (LOX IMVI melanoma)?
Answer: > 100 µM

Question: And the TGI (M14 melanoma)?
Answer: > 100 µM

Question: And the TGI (MOLT-4 leukemia)?
Answer: > 100 µM

Question: What about the TGI (NCI/ADR-RES ovarian) of the same compound?
Answer: > 100 µM

Question: And the TGI (OVCAR-3 ovarian)?
Answer: > 100 µM

Question: And the TGI (OVCAR-8 ovarian)?
Answer: > 100 µM

Question: What about the TGI (PC-3 prostate) of the same compound?
Answer: > 100 µM

Question: And the TGI (SK-MEL-28 melanoma)?
Answer: > 100 µM

Question: What about the TGI (SR leukemia) of the same compound?
Answer: 98.2 µM

Question: What about the TGI (SW-620 colon) of the same compound?
Answer: > 100 µM

Question: And the TGI (U251 CNS)?
Answer: > 100 µM
